Measured values as given in ChEMBL document CHEMBL1159368, “Phenolic compounds from Nymphaea odorata” (J Nat Prod, 2003).
≈ marks a conversion by molar mass, not a printed value.

Assay: Inhibition of Saccharomyces cerevisiae FAS

Row | SMILES | IC50 [µg/mL]
1 | O=c1c(O[C@@H]2O[C@H](CO)[C@H](O)[C@H](O)[C@H]2O)c(-c2cc(O)c(O)c(O)c2)oc2cc(O)cc(O)c12 | 25 (≈ 52 µM)
2 | C[C@@H]1O[C@@H](Oc2c(-c3ccc(O)cc3)oc3cc(O)cc(O)c3c2=O)[C@H](O)[C@H](O)[C@H]1O [AFZELIN] | 45 (≈ 104 µM)
3 | C/C=C/C/C=C/CCC(=O)[C@H]1O[C@H]1C(N)=O [CERULENIN] | 0.19 (≈ 0.851 µM)
4 | C[C@@H]1O[C@@H](Oc2c(-c3ccc(O)c(O)c3)oc3cc(O)cc(O)c3c2=O)[C@H](O)[C@H](O)[C@H]1O [QUERCITRIN] | 50 (≈ 112 µM)
